Values joined by “and” are separate entries in the source; they are usually repeats but may differ in a detail not shown here. Identical values can stand only once. In the oligonucleotide strings, read from the 5' end, every base follows the letter of its sugar. An asterisk marks phosphorothioate; unmarked linkages are phosphodiester. Other units and linkages are bracketed, terminal groups are in braces. A string of capitals states the bases alone. d = 2'-deoxy (DNA)
What was measured:
[1] = tested on: pancreatic cancer; assay: Clinical study of overall survival, pancreatic cancer patients treated with irinotecan, by TGF-β2 expression quartiles (Example 6); type: in vivo, human; conditions: TGFB2 quartile (D) 0.61-2.64, high TGF-β2 expression
Experimental: Kaplan-Meier Plotter was used to calculate patient survival to determine the connection between improved overall survival in pancreatic cancer and reduced TGF-β2 expression when patients were also treated with irinotecan. The study of FIG. 6 used Quartiles of TGFB2 from mRNA expression z-scores relative to all samples (log RNA Seq V2 RSEM).

[2] = tested on: pancreatic cancer; assay: Clinical study of overall survival, pancreatic cancer patients treated with irinotecan, by TGF-β2 expression (Example 5, two cohorts); type: in vivo, human; conditions: for Median Months Overall (95% CI): irinotecan-treated patients; for Improvement in overall survival (OS) with reduced TGF-β2 expression in patients treated with the agent: pancreatic cancer patients selected by treatment; for Synergy in combination with reduced TGF-β2 expression: overall survival, pancreatic cancer patients
Source text: The study of FIG. 5 used Quartiles of TGFB2 from mRNA expression z-scores relative to all samples (log RNA Seq V2 RSEM).

## CCc1c2c(nc3ccc(OC(=O)N4CCC(N5CCCCC5)CC4)cc13)-c1cc3c(c(=O)n1C2)COC(=O)[C@]3(O)CC [irinotecan]
[1]
  Median Months Overall (95% CI): 8 months and 8.22 (6.02-NA) months
[2]; TGFB2 cohort (A) −1.75-0.17, low TGF-β2 expression
  Median Months Overall (95% CI): >>34 months
[2]; TGFB2 cohort (B) 0.33-2.64, high TGF-β2 expression
  Median Months Overall (95% CI): 23 months and 23.08 (8.22-NA) months
[2]
  Improvement in overall survival (OS) with reduced TGF-β2 expression in patients treated with the agent: showed improvement in overall survival

## Nc1nc2c(c(=O)[nH]1)N(C=O)C(CNc1ccc(C(=O)N[C@@H](CCC(=O)O)C(=O)O)cc1)CN2 (some centres unmarked) [leucovorin]
[2]
  Synergy in combination with reduced TGF-β2 expression: none of oxaliplatin, leucovorin, and fluorouracil showed significant synergy
  Improvement in overall survival (OS) with reduced TGF-β2 expression in patients treated with the agent: not observed

## O=c1[nH]cc(F)c(=O)[nH]1 [fluorouracil]
[2]
  Synergy in combination with reduced TGF-β2 expression: none of oxaliplatin, leucovorin, and fluorouracil showed significant synergy
  Improvement in overall survival (OS) with reduced TGF-β2 expression in patients treated with the agent: not observed

## Nc1ccn([C@@H]2O[C@H](CO)[C@@H](O)C2(F)F)c(=O)n1 [gemcitabine]
[2]
  Improvement in overall survival (OS) with reduced TGF-β2 expression in patients treated with the agent: not observed

## Trabedersen: synthetic 18-mer phosphorothioate oligodeoxynucleotide complementary to human TGF-β2 mRNA, CGGCATGTCT ATTTTGTA (antisense dC*dG*dG*dC*dA*dT*dG*dT*dC*dT*dA*dT*dT*dT*dT*dG*dT*dA)
other
  pH of solution: 6-8

## O=C1[O][Pt]2([NH][C@@H]3CCCC[C@H]3[NH]2)[O]C1=O [oxaliplatin]
[2]
  Improvement in overall survival (OS) with reduced TGF-β2 expression in patients treated with the agent: not observed
